The molecules below were run against T1, human orexin type 2 receptor (Homo sapiens, UniProt O43614) (assay: Measurement of orexin type 2 receptor agonist activity (calcium fluorescence, Fluo-4 AM, FDSS)). Settings: compound at 3 μM; CHO cells forcibly expressing human OX2 receptor; DMSO = 0%, orexin A (human) 10 nM = 100%.
T1 construct: expressed in transfected cells
T1 sequence (O43614 1-444): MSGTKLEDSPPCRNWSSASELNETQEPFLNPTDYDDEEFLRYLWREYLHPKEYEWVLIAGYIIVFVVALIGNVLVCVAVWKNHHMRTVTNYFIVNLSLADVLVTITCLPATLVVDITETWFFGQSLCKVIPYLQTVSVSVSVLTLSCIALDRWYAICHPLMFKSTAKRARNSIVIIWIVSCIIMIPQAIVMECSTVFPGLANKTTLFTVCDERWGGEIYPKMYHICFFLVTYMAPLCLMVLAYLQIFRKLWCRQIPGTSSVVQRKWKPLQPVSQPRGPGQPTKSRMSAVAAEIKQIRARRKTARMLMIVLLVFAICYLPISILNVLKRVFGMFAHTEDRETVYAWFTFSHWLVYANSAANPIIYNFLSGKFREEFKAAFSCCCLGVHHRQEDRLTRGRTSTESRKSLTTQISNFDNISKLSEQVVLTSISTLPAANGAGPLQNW
Assay type: cell-based
Source text: To obtain a cell clone stably expressing human orexin type 2 receptor, human orexin type 2 receptor cDNA was inserted into pcDNA3.1(+) plasmid vector (Invitrogen), and a plasmid DNA for expression of human orexin type 2 receptor (pcDNA3.1(+)/hOX2R) was cloned. The plasmid DNA was introduced into CHO-dhfr cell by an electroporation method, and human orexin type 2 receptor expressing clone cells were obtained by limiting dilution method by using G418 drug resistance as a selection marker.
CHO cells forcibly expressing human OX2 receptor were seeded in each well of 384 well black transparent bottom plate (BD Falcon) at 7,500 cells/well, and cultured for one day in a 5% CO2 incubator at 37° C. After removal of the medium in the cell plate, assay buffer A containing a calcium indicator (HBSS (Thermo Fisher Scientific), 20 mM HEPES (Thermo Fisher Scientific), 0.1% BSA (Wako Pure Chemical Industries, Ltd. or Sigma-Aldrich), 2.5 μg/mL Fluo-4 AM (DOJINDO Chemical), 0.08% Pluronic F127 (DOJINDO Chemical), 1.25 mM probenecid (DOJINDO Chemical)) was added at 30 μL/well. The plate was stood for 30 min in a 5% CO2 incubator at 37° C., and further stood at room temperature for 30 min. A test compound prepared by diluting with assay buffer B (HBSS, 20 mM HEPES, 0.1% BSA) was added at […], and the fluorescence value was measured by FDSSpCELL (Hamamatsu Photonics K.K.) every one sec for 1 min, and thereafter every two sec for 1 min 40 sec. The activity (%) of the test compound was calculated assuming that variation in the fluorescence value when DMSO was added instead of the test compound was 0%, and variation in the fluorescence value when orexin A (human) (PEPTIDE INSTITUTE, INC.) was added at the final concentration of 10 nM was 100%. The activity of each compound at the concentration of 3 μM was shown below.

Row | Structure (SMILES) | OX2R agonist activity (3 μ M, %) [%]
1 | CC(C)OC(=O)N1CCCC(NC(=O)[C@@H]2CCCO2)C1COC1CCN(c2ncccn2)CC1 (stereo in doubt) [Example 15, propan-2-yl cis-3-{[(2S)-oxolane-2-carbonyl]amino}-2-({[1-(pyrimidin-2-yl)piperidin-4-yl]oxy}methyl)piperidine-1-carboxylate] | 96
2 | O=C(NC1CCCN(C(=O)N2CCC2)C1COC1CCN(c2ncc(F)cn2)CC1)[C@@H]1CCCO1 (stereo in doubt) [Example 8, (2S)-N-[cis-1-(azetidine-1-carbonyl)-2-({[1-(5-fluoropyrimidin-2-yl)piperidin-4-yl]oxy}methyl)piperidin-3-yl]oxolane-2-carboxamide] | 83
3 | O=C(NC1CCCN(C(=O)C2CCC2)C1COC1CCN(c2ncccn2)CC1)[C@@H]1CCCO1 (stereo in doubt) [Example 11, (2S)-N-[cis-1-(cyclobutanecarbonyl)-2-({[1-(pyrimidin-2-yl)piperidin-4-yl]oxy}methyl)piperidin-3-yl]oxolane-2-carboxamide] | 94
4 | CCNC(=O)N1CCCC(NC(=O)C(=O)N(C)C)C1CO[C@H]1CC[C@@H](c2cccc(F)c2)CC1 (stereo partly drawn) [Example 21, N^~2^~-[cis-1-(ethylcarbamoyl)-2-({[cis-4-(3-fluorophenyl)cyclohexyl]oxy}methyl)piperidin-3-yl]-N^~1^~,N^~1^~- dimethylethanediamide] | 102
5 | O=C(NC1CCCN(C(=O)C2(O)CCC2)C1COC1CCN(c2ncccn2)CC1)[C@@H]1CCCO1 (stereo in doubt) [Example 13, (2S)-N-[cis-1-(1-hydroxycyclobutane-1-carbonyl)-2-({[1-(pyrimidin-2-yl)piperidin-4-yl]oxy}methyl)piperidin-3-yl]oxolane-2-carboxamide] | 81
6 | CN(C)C(=O)C(=O)NC1CCCN(C(=O)C2CCC2)C1COC1CCN(c2ncc(F)cn2)CC1 (stereo not drawn) [Example 4, N^~2^~- [cis-1-(cyclobutanecarbonyl)-2-({[1-(5-fluoropyrimidin-2-yl)piperidin-4-yl]oxy}methyl)piperidin-3-yl]-N^~1^~,N^~1^~-dimethylethanediamide] | 84
7 | CCNC(=O)N1CCCC(NC(=O)C(=O)N(C)C)C1CO[C@H]1CC[C@@H](c2ccccc2)CC1 (stereo partly drawn) [Example 18, N^~2^~-[cis-1-(ethylcarbamoyl)-2-({[cis-4-phenylcyclohexyl]oxy}methyl)piperidin-3-yl]-N^~1^~,N^~1^~- dimethylethanediamide] | 98
8 | O=C(NC1CCCN(C(=O)C2CCC2)C1COC1CCN(c2ncc(F)cn2)CC1)[C@@H]1CCCO1 (stereo in doubt) [Example 12, (2S)-N-[cis-1-(cyclobutanecarbonyl)-2-({[1-(5-fluoropyrimidin-2-yl)piperidin-4-yl]oxy}methyl)piperidin-3-yl]oxolane-2-carboxamide] | 99
9 | CCNC(=O)N1CCCC(NC(=O)C(=O)N(C)C)C1CO[C@H]1CC[C@@H](c2ccccc2F)CC1 (stereo partly drawn) [Example 22, N^~2^~-[cis-1-(ethylcarbamoyl)-2-({[cis-4-(2-fluorophenyl)cyclohexyl]oxy}methyl)piperidin-3-yl]-N^~1^~,N^~1^~- dimethylethanediamide] | 99
10 | CC(C)OC(=O)N1CCCC(NC(=O)[C@@H]2CCCO2)C1COC1CCN(c2ncc(F)cn2)CC1 (stereo in doubt) [Example 16, propan-2-yl cis-2-({[1-(5-fluoropyrimidin-2-yl)piperidin-4-yl]oxy}methyl)-3-{[(2S)-oxolane-2-carbonyl]amino}piperidine-1-carboxylate] | 95
11 | O=C(NC1CCCN(C(=O)N2CCC2)C1COC1CCN(c2ncccn2)CC1)[C@@H]1CCCO1 (stereo in doubt) [Example 7, (2S)-N-[cis-1-(azetidine-1-carbonyl)-2-({[1-(pyrimidin-2-yl)piperidin-4-yl]oxy}methyl)piperidin-3-yl]oxolane-2-carboxamide] | 67
12 | CCNC(=O)N1CCCC(NC(=O)C(=O)N(C)C)C1CO[C@H]1CC[C@@H](c2ccc(F)cc2)CC1 (stereo partly drawn) [Example 19, N^~2^~-[cis-1-(ethylcarbamoyl)-2-({[cis-4-(4-fluorophenyl)cyclohexyl]oxy}methyl)piperidin-3-yl]-N^~1^~,N^~1^~- dimethylethanediamide] | 75
13 | O=C(NC1CCCN(C(=O)C2(O)CCC2)C1COC1CCN(c2ncc(F)cn2)CC1)[C@@H]1CCCO1 (stereo in doubt) [Example 14, (2S)-N-[cis-2-({[1-(5-fluoropyrimidin-2-yl)piperidin-4-yl]oxy}methyl)-1-(1-hydroxycyclobutane-1-carbonyl)piperidin-3-yl]oxolane-2-carboxamide] | 92

Source: US12077522B2, “Heterocyclic compound and application thereof” (Takeda Pharmaceutical Company Limited, priority 2018, dated 2024)
